Reference: article PMC10770036, “Novel dual inhibitors of PARP and HDAC induce intratumoral STING-mediated antitumor immunity in triple-negative breast cancer” (Cell Death & Disease, 2024)

Test system: 4T1 tumors
Assay: Combination with anti-PD-L1 in syngeneic murine 4T1 model
Assay type: in vivo, mice
Conditions: syngeneic 4T1 model; B102 15 mg/kg or B302 50 mg/kg every 2 days; anti-PD-L1 100 μg every 5 days; intraperitoneal
Description: MDA-MB-436 cells (5 × 10^6) were suspended in PBS and Matrigel (Corning) at a 1:1 ratio and orthotopically injected into the fat pads of 6- to 7-week-old female NOD-Prkdc^scid Il2rg^em1Smoc (M-NSG) mice from the Shanghai Model Organisms Center, Inc. MDA-MB-231 cells (5 × 10^6) were suspended in PBS orthotopically injected into the fat pads of 6- to 7-week-old female BALB/c nude mice from the Shanghai Model Organisms Center, Inc. 4T1 cells (1 × 10^6) were suspended in PBS and injected into the fat pads of 6- to 7-week-old male BALB/c mice from GemPharmatech Co., Ltd. […] For the MMTV-PyMT mice, fourteen 6-week-old female mice were randomly divided into two groups, and no blinding was performed. […] For the combination of B102 or B302 and anti-PD-L1 studies, the mice were randomly divided into four treatment groups without blinding: (1) vehicle; (2) B102 (15 mg/kg, every 2 days) or B302 (50 mg/kg, every 2 days); (3) anti-PD-L1 antibodies (100 μg, dissolved in PBS, every 5 days, Atezolizumab, Clone No.: 2B11D11, Shanghai Lollane biological technology Co., Ltd., Shanghai, China); or (4) combination of B102 or B302 and anti-PD-L1, all treatment via an intraperitoneal injection. Tumor size was monitored with a digital caliper, and tumor volume was calculated using the following equation: volume = (length × width^2)/2. […]

## anti-PD-L1: anti-PD-L1 antibodies (Atezolizumab, Clone No.: 2B11D11), immune checkpoint blockade
  tumor growth: restricted tumor growth
